Reference: ChEMBL document CHEMBL5576092, “Iron(III) Binding Properties of PF1140, a Fungal N-Hydroxypyridone, and Activity against Mycoplasma genitalium” (J Nat Prod, 2024)
In brackets after ≈: the same amount, converted by molar mass. Activity calls are given as the source filed them. No cut-off for these calls is given here.

What was measured:
Mycoplasma genitalium [1] = assay: Antibacterial activity against Mycoplasma genitalium G37 assessed as bacterial growth inhibition incubated for 7 days by microbroth dilution assay; assay type: functional; conditions: Mycoplasmoides genitalium, G37, 168 h; time 7 day
Mycoplasma genitalium [2] = assay: Antibacterial activity against Mycoplasma genitalium G37 assessed as bacterial growth inhibition at 0.29 to 0.58 uM incubated for 7 days by time-kill assay; assay type: functional, organism-based; conditions: Mycoplasmoides genitalium, dose 0.29-0.58 µM, time 7.0 day
Mycoplasma genitalium [3] = assay: Antibacterial activity against Mycoplasma genitalium Sea-1 assessed as bacterial growth inhibition by qPCR analysis; assay type: functional, organism-based; conditions: Mycoplasmoides genitalium
Mycoplasma genitalium [4] = assay: Antibacterial activity against Mycoplasma genitalium assessed as bacterial growth inhibition in SP-4 broth medium supplemented with TPEN and zinc chloride at 0.64 uM measured after 2 hrs by absorbance based analysis; assay type: functional, organism-based; conditions: Mycoplasmoides genitalium
[5] = Selectivity index, ratio of IC50 for African green monkey Vero cells to IC50 for Mycoplasma genitalium G37; assay type: toxicity; conditions: read-out: Ratio IC50
[6] = Metal chelating activity assessed as compound-Cobalt complex formation by UV-Vis spectrophotometric analysis
Mycoplasma genitalium [7] = assay: Antibacterial activity against Mycoplasma genitalium G37 assessed as bacterial growth inhibition at 1.16 uM incubated for 7 days by time-kill assay relative to control; assay type: functional, Mycoplasmoides genitalium; parameters: scale not given: the % may be the effect or the level left; conditions: time 7 day
[8] = Metal chelating activity assessed as compound-manganese complex formation by UV-Vis spectrophotometric analysis
Mycoplasma genitalium [9] = assay: Potentiation of hydrogen peroxide sensitivity in Mycoplasma genitalium assessed as reduction in bactericidal concentration of hydrogen peroxide at 0.32 uM measured after 7 days by checkerboard technique (reference value: 7 mM); assay type: functional, Mycoplasmoides genitalium; conditions: time 7 day
[10] = Metal chelating activity assessed as compound-magnesium complex formation by UV-Vis spectrophotometric analysis
Mycoplasma genitalium [11] = assay: Antibacterial activity against Mycoplasma genitalium M2282 assessed as bacterial growth inhibition incubated for 7 days by microbroth dilution assay; assay type: functional; conditions: Mycoplasmoides genitalium, M2282, 168 h; time 7 day
Mycoplasma genitalium [12] = assay: Bacteriostatic activity against Mycoplasma genitalium G37 assessed as bacterial growth inhibition at 4 times MIC measured after 7 days by time-kill assay relative to control; assay type: functional, Mycoplasmoides genitalium; parameters: scale not given: the % may be the effect or the level left; conditions: time 7 day
Mycoplasma genitalium [13] = assay: Antibacterial activity against Mycoplasma genitalium Sea-2 assessed as bacterial growth inhibition incubated for 7 days by microbroth dilution assay; assay type: functional; conditions: Mycoplasmoides genitalium, Sea-2, 168 h; time 7 day
Mycoplasma genitalium [14] = assay: Antibacterial activity against Mycoplasma genitalium at 0.28 to 1.12 measured after >1 month; assay type: functional, organism-based; conditions: Mycoplasmoides genitalium; time > 1.0 months
[15] = Selectivity index, ratio of IC50 for human WIL-2N cells to IC50 for Mycoplasma genitalium G37; assay type: toxicity; conditions: read-out: Ratio IC50
Mycoplasma genitalium [16] = assay: Antibacterial activity against Mycoplasma genitalium Sea-2 assessed as bacterial growth inhibition by qPCR analysis; assay type: functional, organism-based; conditions: Mycoplasmoides genitalium
Mycoplasma genitalium [17] = assay: Antibacterial activity against Mycoplasma genitalium at >0.3 uM; assay type: functional, organism-based; conditions: Mycoplasmoides genitalium
[18] = Metal chelating activity assessed as compound-Nickel complex formation by UV-Vis spectrophotometric analysis
[19] = Metal chelating activity assessed as compound-Fe3+ complex formation by UV-Vis spectrophotometric analysis
Mycoplasma genitalium [20] = assay: Antibacterial activity against Mycoplasma genitalium assessed as bacterial growth inhibition in SP-4 broth medium supplemented with TPEN at 0.64 uM measured after 2 hrs by absorbance based analysis; assay type: functional, organism-based; conditions: Mycoplasmoides genitalium
Mycoplasma genitalium [21] = assay: Antibacterial activity against Mycoplasma genitalium M2300 assessed as bacterial growth inhibition incubated for 7 days by microbroth dilution assay; assay type: functional; conditions: Mycoplasmoides genitalium, M2300, 168 h; time 7 day
[22] = Metal chelating activity assessed as compound-calcium complex formation by UV-Vis spectrophotometric analysis
[23] = Metal chelating activity assessed as compound-zinc complex formation by UV-Vis spectrophotometric analysis
Mycoplasma genitalium [24] = assay: Antibacterial activity against Mycoplasma genitalium Sea-1 assessed as bacterial growth inhibition incubated for 7 days by microbroth dilution assay; assay type: functional; conditions: Mycoplasmoides genitalium, Sea-1, 168 h; time 7 day
Mycoplasma genitalium [25] = assay: Antibacterial activity against Mycoplasma genitalium G37 assessed as bacterial growth inhibition by qPCR analysis; assay type: functional, organism-based; conditions: Mycoplasmoides genitalium
[26] = Metal chelating activity assessed as compound-copper complex formation by UV-Vis spectrophotometric analysis
[27] = Selectivity index, ratio of IC50 for human HeLa cells to IC50 for Mycoplasma genitalium G37; assay type: toxicity; conditions: read-out: Ratio IC50
Mycoplasma genitalium [28] = assay: Antibacterial activity against Mycoplasma genitalium assessed as bacterial growth inhibition in SP-4 broth medium supplemented with DPP at 0.08 to 0.64 uM measured after 2 hrs by absorbance based analysis; assay type: functional, organism-based; conditions: Mycoplasmoides genitalium, dose 0.08-0.64 µM
[29] = Selectivity index, ratio of IC50 for human HepG2 cells to IC50 for Mycoplasma genitalium G37; assay type: toxicity; conditions: read-out: Ratio IC50
Mycoplasma genitalium [30] = assay: Antibacterial activity against Mycoplasma genitalium assessed as bacterial growth inhibition in SP-4 broth medium supplemented with DPP and ferric chloride at 0.64 uM measured after 2 hrs by absorbance based analysis; assay type: functional, organism-based; conditions: Mycoplasmoides genitalium

C[C@@H]1C[C@H](C)[C@@H](c2c(O)cc[nH]c2=O)[C@H](C)[C@@](C)(O)C1 [DEOXYAKANTHOMYCIN]
MIC (Mycoplasma genitalium [1]): > 80 µM

C=C[C@H]1C[C@@H](C)C[C@@H](C)[C@@H]1c1c(O)ccn(O)c1=O
MIC (Mycoplasma genitalium [1]): > 95 µM

COn1ccc2c(c1=O)[C@@H]1[C@@H](C)C[C@@H](C)C[C@]1(C)[C@@H](C)O2
MIC (Mycoplasma genitalium [1]): > 80 µM

COn1ccc(O)c([C@@H]2[C@@H](C)C[C@@H](C)C[C@](C)(O)[C@H]2C)c1=O
MIC (Mycoplasma genitalium [1]): > 80 µM

C[C@@H]1C[C@H](C)[C@H]2c3c(ccn(O)c3=O)O[C@H](C)[C@@]2(C)C1
Activity (Mycoplasma genitalium [2]): Active | IC50 (Mycoplasma genitalium [3]): 100 nM | IC90 (Mycoplasma genitalium [3]): 120 nM | Activity (Mycoplasma genitalium [4]): Active | selectivity ratio [5]: > 32 | Activity [6]: inactive | Activity (Mycoplasma genitalium [7]): 84.2% | Activity [8]: inactive | Activity (Mycoplasma genitalium [9]): 1.8 mM | Activity [10]: inactive | MIC (Mycoplasma genitalium [11]): 0.16 µM (≈ 0.0444 µg/mL) | Activity (Mycoplasma genitalium [12]): >99.9% | MIC (Mycoplasma genitalium [13]): 0.32 µM (≈ 0.0888 µg/mL) | Activity (Mycoplasma genitalium [14]): inactive | selectivity ratio [15]: > 32 | MIC (Mycoplasma genitalium [1]): 0.32 µM (≈ 0.0888 µg/mL) | IC50 (Mycoplasma genitalium [16]): 60 nM | IC90 (Mycoplasma genitalium [16]): 110 nM | Activity (Mycoplasma genitalium [17]): inactive | Activity [18]: inactive | Activity [19]: Active | Activity (Mycoplasma genitalium [20]): inactive | MIC (Mycoplasma genitalium [21]): 0.16 µM (≈ 0.0444 µg/mL) | Activity [22]: inactive | Activity [23]: inactive | MIC (Mycoplasma genitalium [24]): 0.16 µM (≈ 0.0444 µg/mL) | IC50 (Mycoplasma genitalium [25]): 90 nM | IC90 (Mycoplasma genitalium [25]): 120 nM | Activity [26]: inactive | selectivity ratio [27]: > 32 | Activity (Mycoplasma genitalium [28]): inactive | selectivity ratio [29]: > 32 | Activity (Mycoplasma genitalium [30]): Active

C[C@@H]1C[C@H](C)[C@H]2c3c(cc[nH]c3=O)O[C@H](C)[C@@]2(C)C1
MIC (Mycoplasma genitalium [1]): > 80 µM
